The test system of this test is MCF-7 cells. Put plainly: MCF-7 Estrogen Dependent Proliferation Assay. The test is classed as cell-based. The note with it: Homo sapiens, MCF7; added to Estrogen Depleted Media (EDM); read-out: EC50 of stimulation of growth of MCF-7 cells. From the text: MCF-7 Estrogen Dependent Proliferation Assay MCF-7 cells (ATCC #HTB-22) are human mammary gland adenocarcinoma cells that require estrogen for growth. The growth media (GM) for the MCF-7 cells is Minimum Essential Media (without phenol red) supplemented with fetal bovine serum ([…]) to 10%. The PBS serves as the sole source of estrogen and this GM supports the full growth of the cells and is used for the routine growth of the cell cultures. When MCF-7 cells are placed in a media in which 10% Charcoal-Dextran treated fetal bovine serum (CD-FBS) is substituted for PBS, the cells will cease to divide but will remain viable. […] The addition of estradiol to EDM stimulates the growth of the MCF-7 cells in a dose dependent manner with an EC50 of 2 pM. Growing MCF-7 cells are washed several times with EDM and the cultures then maintained in EDM for a minimum of 6 days in order to deplete the cells of endogenous estrogen. […] At this point, the culture supernatants are aspirated, the cells washed 2× with PBS, the wash solution aspirated and the protein content of each well determined. Each drug dilution is evaluated on a minimum of 5 wells and the range of dilution of the test compounds in the assay is 0.001 nM to 1000 nM. […] The assay is terminated at day 8-10 when the appropriate controls reach 80-90% confluency and the protein content of each well is determined as above.

For `C[C@]12CC[C@@H]3c4ccc(O)cc4CC[C@H]3[C@@H]1CC[C@@H]2O` [estradiol], the EC50 came out at 2 pM.

Values taken from US20030225132A1, “Estrogen receptor modulators” (priority 2002, published 2003).
